Data set [1] has as its system E. faecium strains (CIP 103510, Van A, 1401). Description: MIC on a wider panel of strains (Example 10), microdilution. Type of data set: cell-based. To be noted: Enterococcus faecium, CIP103510. As to the method:
The cultures studied, freshly isolated (after incubation on a blood agar at 37° C. for 18 h), are taken up in sterile water (10 mL) until obtaining a 0.5 McFarland (Mc) suspension i.e. 1 to 1 to 2×10^8 CFU (bacteria)/cm^3. The bacterial suspension was then diluted to obtain a final concentration of 1×10^6 CFU/cm^3.
Each well contains an identical quantity of Mueller-Hinton medium (a rich medium for bacterial culture) and bacteria with final [concentration of] 0.5×10^6 CFU/cm^3.
The test compounds of interest are solubilized in ethanol or DMSO at 25 mg/mL before being diluted to different concentrations two by two. On the multiwell plate, a first series has been planned comprising the culture medium without the test compound of interest. It corresponds to the growth control (control well). These controls serve as reference for comparing bacterial growth with that of the subsequent wells comprising different concentrations of the test compound of interest. The second series of wells comprises the mother solution for the test compound of interest for a concentration in the wells of 256 mg/L (7 mM). Each series of wells was diluted two by two until the last series for a final concentration of 0.25 mg/L (0.0007 mM). Each concentration is duplicated in the same plate. The plate is incubated for 18 h at 37° C. […] If there is antibacterial activity, the bacterial growth is inhibited, which means that no turbidity or bacterial residue is present.
The minimum inhibitory concentrations (MIC) are tested on Gram-positive bacterial strains according to the recommendations of the “Clinical Laboratory Standards Institute” (Clinical-Laboratory-Standards-Institute, 6th ed. Approved standard M100-S17. CLSI, Wayne, Pa., 2007). The clinical strains have been isolated in the Hospice de Lyon.
Enterococci: E. faecium (CIP 103510), clinical strains of Enterococci E. faecium: Van A 0151850763 (hereinafter Van A); strain 015 205731401 (hereinafter 1401),
The cultures studied, freshly isolated (after incubation on a blood agar at 37° C. for 18 h), are taken up in sterile water (10 mL) until obtaining a 0.5 McFarland (Mc) suspension i.e. At 10^8 CFU (bacteria)/cm^3. The bacterial suspension was then diluted to obtain a final concentration of 10^6 CFU/cm^3.
(Broth dilution looks for growth in wells or tubes with falling amounts of substance.)

Data set [2] concerns L. monocytogenes strains (CIP 103575, LM1, LM2, LM3). The description is as above. Type of data set: cell-based. To be noted: Listeria monocytogenes, CIP103575. As to the method:
The cultures studied, freshly isolated (after incubation on a blood agar at 37° C. for 18 h), are taken up in sterile water (10 mL) until obtaining a 0.5 McFarland (Mc) suspension i.e. 1 to 1 to 2×10^8 CFU (bacteria)/cm^3. The bacterial suspension was then diluted to obtain a final concentration of 1×10^6 CFU/cm^3. Each well contains an identical quantity of Mueller-Hinton medium (a rich medium for bacterial culture) and bacteria with final [concentration of] 0.5×10^6 CFU/cm^3. The test compounds of interest are solubilized in ethanol or DMSO at 25 mg/mL before being diluted to different concentrations two by two. On the multiwell plate, a first series has been planned comprising the culture medium without the test compound of interest. It corresponds to the growth control (control well). These controls serve as reference for comparing bacterial growth with that of the subsequent wells comprising different concentrations of the test compound of interest. The second series of wells comprises the mother solution for the test compound of interest for a concentration in the wells of 256 mg/L (7 mM). Each series of wells was diluted two by two until the last series for a final concentration of 0.25 mg/L (0.0007 mM). Each concentration is duplicated in the same plate. The plate is incubated for 18 h at 37° C. […] If there is antibacterial activity, the bacterial growth is inhibited, which means that no turbidity or bacterial residue is present. The minimum inhibitory concentrations (MIC) are tested on Gram-positive bacterial strains according to the recommendations of the “Clinical Laboratory Standards Institute” (Clinical-Laboratory-Standards-Institute, 6th ed. Approved standard M100-S17. CLSI, Wayne, Pa., 2007). The clinical strains have been isolated in the Hospice de Lyon. Listeria: L. monocytogenes (CIP 103575), clinical strain isolated from hemoculture (015189074801, LM1), a strain isolated from cerebrospinal liquid (015170199001, LM2), clinical strains isolated from hemoculture (015181840701, LM3). The cultures studied, freshly isolated (after incubation on a blood agar at 37° C. for 18 h), are taken up in sterile water (10 mL) until obtaining a 0.5 McFarland (Mc) suspension i.e. At 10^8 CFU (bacteria)/cm^3. The bacterial suspension was then diluted to obtain a final concentration of 10^6 CFU/cm^3.

The mark [3] stands for this setting: E. faecium CIP 103510, read-out: MIC Enterococcus CIP 103510.
Where [4] appears, read: E. faecium clinical strain Van A 0151850763, read-out: MIC Enterococcus Van A.
Where [5] appears, read: L. monocytogenes CIP 103575, read-out: MIC Listeria CIP 103575.

≈ marks a conversion by molar mass, not a printed value. Like-named read-outs stand apart in the source and are kept apart here.

For orientation: MIC means the lowest concentration that inhibits growth of the organism. As a reminder, the melting point is the temperature, or range, at which the solid turns liquid.

`CCCCCCCCCCCC1OCC2O[C@H](OC)C(O)C(O)[C@@H]2O1` (stereo partly drawn) [Compound 1e, Methyl 4,6-O-Dodecylidene α-D-glucopyranoside] yielded a melting point of 69 °C. The MIC in data set [1] (setting [3]) turned out to be 256 µg/mL (≈ 710 µM). Further, the MIC in data set [1] (setting [4]) stood at 256 µg/mL (≈ 710 µM). Besides, the minimum inhibitory concentration (MIC) in data set [2] (setting [5]) was 64 µg/mL (≈ 178 µM).
As to `CCCCCCCCCCCC1OCC2O[C@@H](OC)C(O)C(O)[C@@H]2O1` (stereo partly drawn) [Compound 1f, Methyl 4,6-O-Dodecylidene β-D-glucopyranoside], the melting point came to 84 °C. The MIC in data set [1] (setting [3]) was found to be 32 µg/mL (≈ 88.8 µM). Further, the MIC in data set [1] (E. faecium clinical strain 015 205731401, read-out: MIC Enterococcus 1401) amounted to 16 µg/mL (≈ 44.4 µM). In addition, the MIC in data set [1] (setting [4]) stood at 32 µg/mL (≈ 88.8 µM). For the same compound, in data set [2] (setting [5]), the MIC was 16 µg/mL (≈ 44.4 µM). Moreover, the MIC in data set [2] (clinical strain from hemoculture 015181840701, read-out: MIC Listeria LM3) came out at 64 µg/mL (≈ 178 µM). Moreover, the MIC in data set [2] (clinical strain from hemoculture 015189074801, read-out: MIC Listeria LM1) is 16 µg/mL (≈ 44.4 µM). For the same compound, the MIC in data set [2] (strain from cerebrospinal liquid 015170199001, read-out: MIC Listeria LM2) amounted to 16 µg/mL (≈ 44.4 µM).

The values above are taken from patent publication US10537103B2, “Antibacterial composition containing an isomer mixture of monosaccharide alkyl monoacetals or monoethers” (TEREOS STARCH & SWEETENERS BELGIUM, priority 2014, dated 2020).
